According to publication PMC222928 (BMC Biochemistry, 2003):

T1: aaTHEP1 (Aquifex aeolicus, UniProt O67322)
T1 sequence (O67322 1-178): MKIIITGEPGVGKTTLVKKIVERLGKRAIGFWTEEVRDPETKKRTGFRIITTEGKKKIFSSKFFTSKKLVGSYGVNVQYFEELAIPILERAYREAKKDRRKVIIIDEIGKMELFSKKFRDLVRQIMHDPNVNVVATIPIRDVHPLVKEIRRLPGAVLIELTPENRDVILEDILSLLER

B1: aaTHEP1 (Aquifex aeolicus VF5) (protein)
chain: T1 sequence (O67322 1-178)

Columns and labels:
aaTHEP1 [1] = target: T1, aaTHEP1; test: inhibition of [γ-32P]ATP hydrolysis, TLC on PEI-cellulose; format: biochemical
aaTHEP1 [2] = target: T1, aaTHEP1; test: inhibition of [γ-32P]ATP hydrolysis, TLC autoradiography; format: biochemical; settings: 5 and 1000 μM ATP, 5 and 1000 μM GDP, 70°C, 5 min
purified protein = substrate: Nc1ncnc2c1ncn2[C@@H]1O[C@H](COP(=O)(O)OP(=O)(O)OP(=O)(O)O)[C@@H](O)[C@H]1O; test: purified protein; settings: 70°C, 25 mM MgCl2, 5 mM KCl, pH 7.0, labelled compound

Molecule | Ki (aaTHEP1 [1]) | other results
Cc1cn([C@H]2C[C@H](O)[C@@H](COP(=O)(O)OP(=O)(O)OP(=O)(O)O)O2)c(=O)[nH]c1=O [dTTP] | 6 ± 2 µM | –
Nc1nc2c(ncn2[C@@H]2O[C@H](COP(=O)(O)OP(=O)(O)OP(=O)(O)O)[C@@H](O)[C@H]2O)c(=O)[nH]1 [GTP] | 57 ± 20 µM | –
Nc1nc2c(ncn2[C@H]2C[C@H](O)[C@@H](COP(=O)(O)OP(=O)(O)OP(=O)(O)O)O2)c(=O)[nH]1 [dGTP] | 18 ± 2 µM | –
Nc1nc2c(ncn2[C@@H]2O[C@H](COP(=O)(O)OP(=O)(O)O)[C@@H](O)[C@H]2O)c(=O)[nH]1 [GDP] | – | inhibition of [γ-32P]ATP hydrolysis, TLC autoradiography (aaTHEP1 [2]): GDP also inhibits ATP-hydrolysis, whereas GMP, AMP, and UMP show no inhibition
Nc1ccn([C@H]2C[C@H](O)[C@@H](COP(=O)(O)OP(=O)(O)OP(=O)(O)O)O2)c(=O)n1 [dCTP] | 9 ± 3 µM | –
Nc1ncnc2c1ncn2[C@H]1C[C@H](O)[C@@H](COP(=O)(O)OP(=O)(O)OP(=O)(O)O)O1 [dATP] | 3 ± 0.2 µM | –
O=c1ccn([C@@H]2O[C@H](COP(=O)(O)OP(=O)(O)OP(=O)(O)O)[C@@H](O)[C@H]2O)c(=O)[nH]1 [UTP] | 5 ± 2 µM | –
Nc1ccn([C@@H]2O[C@H](COP(=O)(O)OP(=O)(O)OP(=O)(O)O)[C@@H](O)[C@H]2O)c(=O)n1 [CTP] | 6 ± 2 µM | –
B1 | – | Km (purified protein): 5.5 µM; kcat (purified protein): 0.005 s⁻¹
